Patent publication US20230248826A1, “Synchronizing Tumor Cells to the G2/M Phase Using TTFields Combined with Taxane or Other Anti-Microtubule Agents” (Novocure GmbH, priority 2016, published 2023)

Experiments:
Type in all cases: cell-based, human
OVCAR-3 cells [1] = assay: Cell cycle analysis by flow cytometry, OVCAR-3; conditions: 72 hours
Protocol: (§1) The human ovarian carcinoma cell line A2780 was obtained from the European Collection of Cell Cultures. The human ovarian adenocarcinoma cell lines OVCAR-3 (HTB-161) and Caov-3 (HTB-75) were obtained from the American Type Culture Collection (ATCC). Paclitaxel (Sigma Aldrich, Rehovot, Israel) dissolved in DMSO was used at the following concentrations: 1 nM, 2 nM, 4 nM, 10 nM, and 100 nM. TTFields were applied in vitro using special ceramic Petri dishes with two pairs of transducer arrays printed perpendicularly on the outer walls of a Petri dish. The inner surfaces of the electrodes were coated with a high dielectric constant ceramic (lead magnesium niobate-lead titanate (PMN-PT)). […] By selectively activating the signals that were applied to the electrodes, the orientation of the TTFields was switched 90° every 1 second, thus covering the majority of the orientation axis of cell divisions, as previously described by Kirson et al. During the experiment, temperature was measured by 2 thermistors (Omega Engineering, Stamford, Conn.) attached to the walls of the Petri dish. […] Cell cycle distribution was then quantified using iCyt EC800. Fluorescence signals were collected at the wavelengths of 525/50 nm for Annexin V and 665/30 nm for 7-AAD. The data was analyzed using the Flowjo software. […]

Caov-3 cells [2] = assay: Mitotic figures analysis by confocal microscopy, Caov-3; conditions: 4 nM paclitaxel combined with 2.7 V/cm pk-pk, 200 kHz TTFields, 72 hours, Caov-3, compared to control and single treatments
Protocol: (§2) The human ovarian carcinoma cell line A2780 was obtained from the European Collection of Cell Cultures. The human ovarian adenocarcinoma cell lines OVCAR-3 (HTB-161) and Caov-3 (HTB-75) were obtained from the American Type Culture Collection (ATCC). Paclitaxel (Sigma Aldrich, Rehovot, Israel) dissolved in DMSO was used at the following concentrations: 1 nM, 2 nM, 4 nM, 10 nM, and 100 nM.
(§3) TTFields were applied in vitro using special ceramic Petri dishes with two pairs of transducer arrays printed perpendicularly on the outer walls of a Petri dish. The inner surfaces of the electrodes were coated with a high dielectric constant ceramic (lead magnesium niobate-lead titanate (PMN-PT)). The transducer arrays were connected to a sinusoidal waveform generator which generated fields at 200 kHz in the medium. By selectively activating the signals that were applied to the electrodes, the orientation of the TTFields was switched 90° every 1 second, thus covering the majority of the orientation axis of cell divisions, as previously described by Kirson et al. During the experiment, temperature was measured by 2 thermistors (Omega Engineering, Stamford, Conn.) attached to the walls of the Petri dish. All cells suspensions were grown on a cover slip inside the Petri dish and treated with TTFields at intensity of 2.7 V/cm. […]

A2780 cells [3] = assay: Mitotic figures analysis by confocal microscopy, A2780; conditions: 4 nM paclitaxel combined with 2.7 V/cm pk-pk, 200 kHz TTFields, 72 hours, A2780, compared to control and single treatments
Protocol: as §2, §3

Caov-3 cells [4] = assay: Cell cycle analysis by flow cytometry, Caov-3; conditions: 72 hours
Protocol: as §1

OVCAR-3 cells [5] = assay: Mitotic figures analysis by confocal microscopy, OVCAR-3; conditions: 4 nM paclitaxel combined with 2.7 V/cm pk-pk, 200 kHz TTFields, 72 hours, OVCAR-3, compared to control and single treatments
Protocol: as §2, §3

A2780 cells [6] = assay: Cell cycle analysis by flow cytometry, A2780; conditions: 8 hours
Protocol: as §1

[7] = low dose paclitaxel (2, 4 and 10 nM) combined with TTFields (2.7 V/cm, 200 kHz)
[8] = paclitaxel alone, without TTFields

CC(=O)O[C@H]1C(=O)[C@@]2(C)[C@H]([C@H](OC(=O)c3ccccc3)[C@]3(O)C[C@H](OC(=O)[C@H](O)[C@@H](NC(=O)c4ccccc4)c4ccccc4)C(C)=C1C3(C)C)[C@]1(OC(C)=O)CO[C@@H]1C[C@@H]2O [paclitaxel]
number of cells in the G2/M phase (OVCAR-3 cells [1]; [7]): dramatically increased | cells in the G2/M phase (OVCAR-3 cells [1]; [8]): accumulated in the G2/M phase in a dose dependent manner | mitotic figures (mitotic arrest) (Caov-3 cells [2]): substantial increase in mitotic figures | mitotic figures (mitotic arrest) (A2780 cells [3]): substantial increase in mitotic figures | number of cells in the G2/M phase (Caov-3 cells [4]; [7]): dramatically increased | cells in the G2/M phase (Caov-3 cells [4]; [8]): accumulated in the G2/M phase in a dose dependent manner | mitotic figures (mitotic arrest) (OVCAR-3 cells [5]): substantial increase in mitotic figures | cells in the G2/M phase (A2780 cells [6]; low dose paclitaxel combined with TTFields (2.7 V/cm, 200 kHz)): accumulated in the G2/M phase even after a short treatment duration | cells in the G2/M phase (A2780 cells [6]; [8]): accumulated in the G2/M phase in a dose dependent manner
